This is an account of results in PubChem BioAssay AID1918948 (Molecular Pharmacology Branch, DTP, NCI, 2023).

As usually defined, the IC50 is the concentration that gives 50% inhibition. The term viability, T/C denotes the result in the treated group divided by that in the control group, in per cent.

Several values for one entry are separate records, joined by “and”; a condition that tells them apart may be missing. Equal values may be shown once. Where only a bound is given, the exact number is not on record here.

The experiment concerns K-562 leukemia growth, % test/control. The experiment can be described thus: Anticancer human tumor K-562 cell line growth inhibition.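 For viability, T/C: 100% = DMSO vehicle wells and lower values mean fewer viable cells.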 The settings on record: spheroids with HUVEC and MSC; for viability, T/C: stronger effect = lower value. The essentials: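 Complex spheroids of tumor cells with HUVEC and human MSCs, exposed to iadademstat combined with other agents. Each agent tested in half-log steps from near clinical Cmax (else 10 microM top), DMSO ≤0.25%.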

The mark [1] stands for this setting: curve of first compound, second compound 0.1 µM.
Setting [2] is: curve of first compound, second compound 0.316 µM.
Setting [3] is: curve of first compound, second compound 1 µM.
The mark [4] stands for this setting: curve of first compound, second compound 3.16 µM.
Setting [5] is: curve of first compound, second compound 10 µM.
The mark [6] stands for this setting: second compound 0.1 µM, first compound 0.00949 µM.
[7] abbreviates: second compound 0.1 µM, first compound 0.03 µM.
The mark [8] stands for this setting: second compound 0.1 µM, first compound 0.0949 µM.
Where [9] appears, read: second compound 0.1 µM, first compound 0.3 µM.
The mark [10] stands for this setting: second compound 0.1 µM, first compound 0.949 µM.
Where [11] appears, read: second compound 0.1 µM, first compound 3 µM.
Where [12] appears, read: second compound 0.316 µM, first compound 0.00949 µM.
Where [13] appears, read: second compound 0.316 µM, first compound 0.03 µM.
Setting [14] is: second compound 0.316 µM, first compound 0.0949 µM.
Where [15] appears, read: second compound 0.316 µM, first compound 0.3 µM.
Where [16] appears, read: second compound 0.316 µM, first compound 0.949 µM.
Setting [17] is: second compound 0.316 µM, first compound 3 µM.
Where [18] appears, read: second compound 1 µM, first compound 0.00949 µM.
The mark [19] stands for this setting: second compound 1 µM, first compound 0.03 µM.
Setting [20] is: second compound 1 µM, first compound 0.0949 µM.
Where [21] appears, read: second compound 1 µM, first compound 0.3 µM.
Where [22] appears, read: second compound 1 µM, first compound 0.949 µM.
[23] abbreviates: second compound 1 µM, first compound 3 µM.
Setting [24] is: second compound 3.16 µM, first compound 0.00949 µM.
[25] abbreviates: second compound 3.16 µM, first compound 0.03 µM.
The mark [26] stands for this setting: second compound 3.16 µM, first compound 0.0949 µM.
Where [27] appears, read: second compound 3.16 µM, first compound 0.3 µM.
[28] abbreviates: second compound 3.16 µM, first compound 0.949 µM.
Setting [29] is: second compound 3.16 µM, first compound 3 µM.
The mark [30] stands for this setting: second compound 10 µM, first compound 0.00949 µM.
The mark [31] stands for this setting: second compound 10 µM, first compound 0.03 µM.
Where [32] appears, read: second compound 10 µM, first compound 0.0949 µM.
[33] abbreviates: second compound 10 µM, first compound 0.3 µM.
Where [34] appears, read: second compound 10 µM, first compound 0.949 µM.
Setting [35] is: second compound 10 µM, first compound 3 µM.

`O=C(C=Cc1cccc(S(=O)(=O)Nc2ccccc2)c1)NO` + NC1CC1c1ccc(-c2cccc(O)c2)cc1: the IC50 runs as follows: under setting [1], 240 nM; under setting [2], 227 nM; under setting [3], 221 nM; under setting [4], 212 nM; under setting [5], 140 nM. Besides, the viability, T/C is 106% under setting [6]; 103% under setting [7]; 102% under setting [8]; 5.9% under setting [9]; 2.2% under setting [10]; 104% under setting [11]. The viability, T/C by setting is: under setting [12], 102%; under setting [13], 105%; under setting [14], 96.9%; under setting [15], 4.4%; under setting [16], 1.16%; under setting [17], 99.1%. Besides, the viability, T/C runs as follows: under setting [18], 100%; under setting [19], 102%; under setting [20], 95.6%; under setting [21], 3.61%; under setting [22], 0.8%; under setting [23], 96.4%. Besides, the viability, T/C under setting [24] was 98.5%; the viability, T/C under setting [25] was 101%; the viability, T/C under setting [26] is 89.8%; the viability, T/C under setting [27] was 2.99%; the viability, T/C under setting [28] was 1.26%; the viability, T/C under setting [29] was 94.5%. Further, the viability, T/C is, setting by setting: under setting [30], 84.5%; under setting [31], 82%; under setting [32], 59.1%; under setting [33], 2.72%; under setting [34], 0.89%; under setting [35], 93.5%.

Turning to `O=C(C=Cc1cccc(S(=O)(=O)Nc2ccccc2)c1)NO`, the viability, T/C was 100% and 96% (compound 0.00949 µM); 98.5% and 97.4% (compound 0.03 µM); 101% and 98.3% (compound 0.0949 µM); 83.7% and 5.37% (compound 0.3 µM); 2.11% and 0.8% (compound 0.949 µM). Besides, the IC50 (curve of compound) is 483 nM and 235 nM.

With `NS(=O)(=O)OCC1CC(n2ccc3c(NC4CCc5ccccc54)ncnc32)CC1O` (stereo not drawn) + NC1CC1c1ccc(-c2cccc(O)c2)cc1, the IC50 under setting [1] was under 9.49 nM; the IC50 under setting [2] is under 9.49 nM; the IC50 under setting [3] was under 9.49 nM; the IC50 under setting [4] was under 9.49 nM; the IC50 under setting [5] is under 9.49 nM. Moreover, the viability, T/C was 50.7% under setting [6]; 32.8% under setting [7]; 37.7% under setting [8]; 19.2% under setting [9]; 11.2% under setting [10]; 4.04% under setting [11]. The viability, T/C under setting [12] was 47%; the viability, T/C under setting [13] is 29.9%; the viability, T/C under setting [14] is 32%; the viability, T/C under setting [15] is 16.3%; the viability, T/C under setting [16] is 10.3%; the viability, T/C under setting [17] was 3.18%. Moreover, the viability, T/C runs as follows: under setting [18], 46.8%; under setting [19], 27.1%; under setting [20], 32.8%; under setting [21], 14.8%; under setting [22], 10.3%; under setting [23], 3.44%. The viability, T/C under setting [24] is 45.6%; the viability, T/C under setting [25] was 25.7%; the viability, T/C under setting [26] is 30.2%; the viability, T/C under setting [27] is 13.2%; the viability, T/C under setting [28] is 8.49%; the viability, T/C under setting [29] is 1.8%. Besides, the viability, T/C is 30.5% under setting [30]; 19.8% under setting [31]; 21.2% under setting [32]; 9.28% under setting [33]; 2.95% under setting [34]; 0.72% under setting [35].

Turning to `NS(=O)(=O)OCC1CC(n2ccc3c(NC4CCc5ccccc54)ncnc32)CC1O` (stereo not drawn), the viability, T/C by setting is: (compound 0.00949 µM) 65.6% and 51.5%; (compound 0.03 µM) 47% and 34.4%; (compound 0.0949 µM) 49.3% and 36.1%; (compound 0.3 µM) 34.9% and 20.1%; (compound 0.949 µM) 18% and 13.5%; (compound 3 µM) 11.5% and 4.24%. Further, the IC50 (curve of compound) is 47.6 nM and < 9.49 nM.
